This is an account of results in publication PMC5218480 (PLoS ONE, 2017).

The assay concerns MV-4-11 cells. Description: Gene expression microarray analysis (Affymetrix PrimeView) and GSEA. As to conditions: ProbeSet 11758170_s_at; LIST D. More on the design: RFU PODN (11730768_x_at) / Fold change /veh PODN (11730768_x_at) / RFU LINC00158 (11744669_a_at) / Fold change /veh LINC00158 (11744669_a_at) / RFU DUSP10 (11751237_a_at) / Fold change /veh DUSP10 (11751237_a_at) / RFU ID3 (11757404_x_at) / Fold change /veh ID3 (11757404_x_at) / RFU PLEKHG5 (11737974_s_at) / Fold change /veh PLEKHG5 (11737974_s_at) / RFU LRRC4B (11730491_at) / Fold change /veh LRRC4B (11730491_at) / RFU GIMAP4 (11747438_a_at) / Fold change /veh GIMAP4 (11747438_a_at) / RFU KRT8 (11758183_x_at) / Fold change /veh KRT8 (11758183_x_at) / RFU CNN1 (11734310_a_at) / Fold change /veh CNN1 (11734310_a_at) / RFU VPS37D (11726825_at) / Fold change /veh VPS37D (11726825_at) / RFU C10orf10 (11716522_x_at) / Fold change /veh C10orf10 (11716522_x_at) / RFU KIR2DL2 /// KIR2DL4 /// KIR2DL5A /// KIR2DL5B /// KIR2DS1 /// KIR2DS2 /// KIR2DS3 /// KIR2DS4 /// KIR3DL3 /// KIR3DL3 /// KIR3DS1 (11738374_at) / Fold change /veh KIR2DL2 /// KIR2DL4 /// KIR2DL5A /// KIR2DL5B /// KIR2DS1 /// KIR2DS2 /// KIR2DS3 /// KIR2DS4 /// KIR3DL3 /// KIR3DL3 /// KIR3DS1 (11738374_at) / RFU C1QL1 (11718748_at) / Fold change /veh C1QL1 (11718748_at) / RFU TMPRSS4 (11747572_a_at) / Fold change /veh TMPRSS4 (11747572_a_at) / RFU HAMP (11756126_x_at) / Fold change /veh HAMP (11756126_x_at) / RFU RNFT2 (11725882_a_at) / Fold change /veh RNFT2 (11725882_a_at) / RFU NR4A2 (11747474_a_at) / Fold change /veh NR4A2 (11747474_a_at) / RFU ABCC12 (11746883_a_at) / Fold change /veh ABCC12 (11746883_a_at) / RFU TMEM136 (11760407_x_at) / Fold change /veh TMEM136 (11760407_x_at) / RFU CLDN22 /// WWC2 (11732394_at) / Fold change /veh CLDN22 /// WWC2 (11732394_at) / RFU HLA-DPB1 (11760878_x_at) / Fold change /veh HLA-DPB1 (11760878_x_at) / RFU SPINT1 (11716480_a_at) / Fold change /veh SPINT1 (11716480_a_at) / RFU GAP43 (11754022_s_at) / Fold change /veh GAP43 (11754022_s_at) / RFU A4GNT (11735810_at) / Fold change /veh A4GNT (11735810_at) / RFU PRB3 (11715151_x_at) / Fold change /veh PRB3 (11715151_x_at) / RFU TUBB4B (11761932_at) / Fold change /veh TUBB4B (11761932_at) / RFU CAPN14 (11732068_a_at) / Fold change /veh CAPN14 (11732068_a_at) / RFU TMCC2 (11721928_a_at) / Fold change /veh TMCC2 (11721928_a_at) / RFU IRGQ (11745062_a_at) / Fold change /veh IRGQ (11745062_a_at) / RFU FAM174B (11720279_a_at) / Fold change /veh FAM174B (11720279_a_at) / RFU TMPRSS4 (11748680_a_at) / Fold change /veh TMPRSS4 (11748680_a_at) / RFU FAM212B (11763350_a_at) / Fold change /veh FAM212B (11763350_a_at) / RFU PLEKHG5 (11743358_a_at) / Fold change /veh PLEKHG5 (11743358_a_at) / RFU ZSCAN30 (11745921_a_at) / Fold change /veh ZSCAN30 (11745921_a_at) / RFU CMKLR1 (11741424_a_at) / Fold change /veh CMKLR1 (11741424_a_at) / RFU LOC101060620 /// MAPK8IP1 (11723275_at) / Fold change /veh LOC101060620 /// MAPK8IP1 (11723275_at) / RFU SPTSSB (11747773_x_at) / Fold change /veh SPTSSB (11747773_x_at) / RFU PRSS12 (11739890_at) / Fold change /veh PRSS12 (11739890_at) / RFU BIN1 (11741810_x_at) / Fold change /veh BIN1 (11741810_x_at) / RFU WNT11 (11732464_a_at) / Fold change /veh WNT11 (11732464_a_at) / RFU C10orf10 (11716521_a_at) / Fold change /veh C10orf10 (11716521_a_at) / RFU C5orf56 (11738089_at) / Fold change /veh C5orf56 (11738089_at) / RFU CYB561 (11721691_x_at) / Fold change /veh CYB561 (11721691_x_at) / RFU ANKRD19P (11752326_a_at) / Fold change /veh ANKRD19P (11752326_a_at) / RFU OR2T12 /// OR2T33 /// OR2T8 (11738714_s_at) / Fold change /veh OR2T12 /// OR2T33 /// OR2T8 (11738714_s_at) / RFU VCAN (11748164_a_at) / Fold change /veh VCAN (11748164_a_at) / RFU JSRP1 (11732532_at) / Fold change /veh JSRP1 (11732532_at) / RFU KRTAP10-11 (11738290_x_at) / Fold change /veh KRTAP10-11 (11738290_x_at) / RFU MYO3A (11730013_a_at) / Fold change /veh MYO3A (11730013_a_at) / RFU EBF3 (11725865_a_at) / Fold change /veh EBF3 (11725865_a_at) / RFU CAMK2N1 (11719241_x_at) / Fold change /veh CAMK2N1 (11719241_x_at) / RFU C5orf56 (11738088_a_at) / Fold change /veh C5orf56 (11738088_a_at) / RFU OLFML3 (11715873_a_at) / Fold change /veh OLFML3 (11715873_a_at) / RFU LOC100653217 /// NTM (11731650_a_at) / Fold change /veh LOC100653217 /// NTM (11731650_a_at) / RFU MAPK11 (11762145_a_at) / Fold change /veh MAPK11 (11762145_a_at) / RFU FIZ1 (11724087_x_at) / Fold change /veh FIZ1 (11724087_x_at) / RFU OASL (11726364_x_at) / Fold change /veh OASL (11726364_x_at) / RFU SOX15 (11748057_x_at) / Fold change /veh SOX15 (11748057_x_at) / RFU CD79A (11719716_a_at) / Fold change /veh CD79A (11719716_a_at) / RFU HIST1H1D (11736915_at) / Fold change /veh HIST1H1D (11736915_at) / RFU CASKIN2 (11723855_a_at) / Fold change /veh CASKIN2 (11723855_a_at) / RFU LOC730098 (11760151_x_at) / Fold change /veh LOC730098 (11760151_x_at) / RFU OR4N2 (11742367_at) / Fold change /veh OR4N2 (11742367_at) / RFU PRRT2 (11749266_a_at) / Fold change /veh PRRT2 (11749266_a_at) / RFU SNX32 (11753110_a_at) / Fold change /veh SNX32 (11753110_a_at) / RFU CDHR5 (11726645_a_at) / Fold change /veh CDHR5 (11726645_a_at) / RFU RCAN1 (11760418_a_at) / Fold change /veh RCAN1 (11760418_a_at) / RFU FAM167A (11723789_a_at) / Fold change /veh FAM167A (11723789_a_at) / RFU FAM26E (11764081_at) / Fold change /veh FAM26E (11764081_at) / RFU ISYNA1 (11749810_s_at) / Fold change /veh ISYNA1 (11749810_s_at) / RFU ACY1 (11761880_at) / Fold change /veh ACY1 (11761880_at) / RFU 11764098_at / Fold change /veh 11764098_at / RFU SAMD14 (11745864_x_at) / Fold change /veh SAMD14 (11745864_x_at) / RFU NPB (11741838_a_at) / Fold change /veh NPB (11741838_a_at) / RFU TMPRSS6 (11731388_a_at) / Fold change /veh TMPRSS6 (11731388_a_at) / RFU KRTAP10-2 (11738614_at) / Fold change /veh KRTAP10-2 (11738614_at) / RFU ARHGAP8 /// PRR5-ARHGAP8 (11727945_x_at) / Fold change /veh ARHGAP8 /// PRR5-ARHGAP8 (11727945_x_at) / RFU KRTAP5-7 /// NADSYN1 (11734609_at) / Fold change /veh KRTAP5-7 /// NADSYN1 (11734609_at) / RFU RASL12 (11751679_a_at) / Fold change /veh RASL12 (11751679_a_at) / RFU CDKN2B (11736163_a_at) / Fold change /veh CDKN2B (11736163_a_at) / RFU PRF1 (11729649_at) / Fold change /veh PRF1 (11729649_at) / RFU, ZNF638 /// ZNF638-IT1 / Fold change vs veh, ZNF638 /// ZNF638-IT1 / RFU, PANK3 / Fold change vs veh, PANK3 / RFU, SH3YL1 / Fold change vs veh, SH3YL1 / RFU, ZEB2 / Fold change vs veh, ZEB2 / RFU, NRIP1 / Fold change vs veh, NRIP1 / RFU, PTTG1IP / Fold change vs veh, PTTG1IP / RFU, CAPN2 / Fold change vs veh, CAPN2 / RFU, MED14 / Fold change vs veh, MED14 / RFU, SNORA58 / Fold change vs veh, SNORA58 / RFU, C1orf63 / Fold change vs veh, C1orf63 / RFU, LRRFIP1 / Fold change vs veh, LRRFIP1 / RFU, NDUFAF7 / Fold change vs veh, NDUFAF7 / RFU, SLC12A2 / Fold change vs veh, SLC12A2 / RFU, IBTK / Fold change vs veh, IBTK / RFU, ESF1 / Fold change vs veh, ESF1 / Fold change vs veh, TMEM50B / RFU, TAOK1 / Fold change vs veh, TAOK1 / RFU, ACBD3 / Fold change vs veh, ACBD3 / RFU, TMA16 / Fold change vs veh, TMA16 / RFU, RWDD3 / Fold change vs veh, RWDD3 / RFU, BCAT1 / Fold change vs veh, BCAT1 / RFU, EDEM3 / Fold change vs veh, EDEM3 / RFU, TMEM33 / Fold change vs veh, TMEM33 / RFU, WDR75 / Fold change vs veh, WDR75 / RFU, AHCTF1 / Fold change vs veh, AHCTF1 / RFU, TFRC / Fold change vs veh, TFRC / RFU, ZDHHC17 / Fold change vs veh, ZDHHC17 / RFU, NOM1 / Fold change vs veh, NOM1 / RFU, ARL8B / Fold change vs veh, ARL8B / RFU, ZBTB11 / Fold change vs veh, ZBTB11 / RFU, TAMM41 / Fold change vs veh, TAMM41 / RFU, KIAA1704 /// LOC100996395 / Fold change vs veh, KIAA1704 /// LOC100996395 / RFU, ING1 / Fold change vs veh, ING1 / RFU, TRMT61B / Fold change vs veh, TRMT61B / RFU, FUBP3 / Fold change vs veh, FUBP3 / RFU, TP53 / Fold change vs veh, TP53 / RFU, TNKS2 / Fold change vs veh, TNKS2 / RFU, ZFP14 / Fold change vs veh, ZFP14 / RFU, ACTR2 / Fold change vs veh, ACTR2 / RFU, PPP3R1 / Fold change vs veh, PPP3R1 / RFU, PIK3R1 / Fold change vs veh, PIK3R1 / RFU, HNRNPA1 / Fold change vs veh, HNRNPA1 / RFU, RNF170 / Fold change vs veh, RNF170 / RFU, ZNF28 / Fold change vs veh, ZNF28 / RFU, RNGTT / Fold change vs veh, RNGTT / RFU, OGT / Fold change vs veh, OGT / RFU, BRD1 / Fold change vs veh, BRD1 / RFU, MARS / Fold change vs veh, MARS / RFU, ZNF655 / Fold change vs veh, ZNF655 / RFU, FAHD1 / Fold change vs veh, FAHD1 / RFU, BDP1 / Fold change vs veh, BDP1 / RFU, LRRCC1 / Fold change vs veh, LRRCC1 / RFU, ARID1A / Fold change vs veh, ARID1A / RFU, ZNF146 / Fold change vs veh, ZNF146 / RFU, ZNF330 / Fold change vs veh, ZNF330 / RFU, GPN3 / Fold change vs veh, GPN3 / RFU, C9orf123 / Fold change vs veh, C9orf123 / RFU, N4BP2L2 / Fold change vs veh, N4BP2L2 / RFU, ARFIP1 / Fold change vs veh, ARFIP1 / RFU, FAM179B / Fold change vs veh, FAM179B / RFU, BCL10 / Fold change vs veh, BCL10 / RFU, UHRF1BP1L / Fold change vs veh, UHRF1BP1L / RFU, BET1 / Fold change vs veh, BET1 / RFU, CNOT2 / Fold change vs veh, CNOT2 / RFU, ZNF268 / Fold change vs veh, ZNF268 / Fold change vs veh, ZNF507 / RFU, DGCR2 / Fold change vs veh, DGCR2 / RFU, WDSUB1 / Fold change vs veh, WDSUB1 / Fold change vs veh, HSP90B1 /// MIR3652 / RFU, ADSS / Fold change vs veh, ADSS / RFU, GK / Fold change vs veh, GK / RFU, ZNF148 / Fold change vs veh, ZNF148 / RFU, TAF9 / Fold change vs veh, TAF9 / RFU, SLC1A5 / Fold change vs veh, SLC1A5 / RFU, SLMO2 / Fold change vs veh, SLMO2 / RFU, ABCC4 / Fold change vs veh, ABCC4 / RFU, LOC101060439 /// RAP1B / Fold change vs veh, LOC101060439 /// RAP1B / RFU, RFX7 / Fold change vs veh, RFX7 / RFU, GTPBP10 / Fold change vs veh, GTPBP10 / RFU, CNEP1R1 / Fold change vs veh, CNEP1R1 / RFU, BIVM-ERCC5 /// ERCC5 / Fold change vs veh, BIVM-ERCC5 /// ERCC5 / RFU, ILF3 / Fold change vs veh, ILF3 / RFU 11762660_at / Fold change /veh 11762660_at / RFU VCAN (11757783_s_at) / Fold change /veh VCAN (11757783_s_at) / RFU DDX43 (11728927_at) / Fold change /veh DDX43 (11728927_at) / RFU KRT8 (11758188_x_at) / Fold change /veh KRT8 (11758188_x_at) / RFU NKD1 (11759106_at) / Fold change /veh NKD1 (11759106_at) / RFU SRD5A1 (11742802_a_at) / Fold change /veh SRD5A1 (11742802_a_at) / RFU TPSAB1 /// TPSB2 (11721975_s_at) / Fold change /veh TPSAB1 /// TPSB2 (11721975_s_at) / RFU GSTM3 (11746129_a_at) / Fold change /veh GSTM3 (11746129_a_at) / RFU IL23R (11737362_x_at) / Fold change /veh IL23R (11737362_x_at) / RFU TMEM51 (11727254_a_at) / Fold change /veh TMEM51 (11727254_a_at) / RFU PIWIL2 (11732686_x_at) / Fold change /veh PIWIL2 (11732686_x_at) / RFU ORM1 (11744905_x_at) / Fold change /veh ORM1 (11744905_x_at) / RFU CCDC152 (11743942_at) / Fold change /veh CCDC152 (11743942_at) / RFU ECM1 (11717891_a_at) / Fold change /veh ECM1 (11717891_a_at) / RFU IL23R (11748794_a_at) / Fold change /veh IL23R (11748794_a_at) / RFU TNFAIP8L3 (11732012_x_at) / Fold change /veh TNFAIP8L3 (11732012_x_at) / RFU MBOAT4 (11741988_at) / Fold change /veh MBOAT4 (11741988_at) / RFU 11764193_at / Fold change /veh 11764193_at / RFU TMEM53 (11763286_at) / Fold change /veh TMEM53 (11763286_at) / RFU MAGEB2 (11727129_at) / Fold change /veh MAGEB2 (11727129_at) / RFU TMEM200A (11744735_a_at) / Fold change /veh TMEM200A (11744735_a_at) / RFU CCDC152 (11751479_a_at) / Fold change /veh CCDC152 (11751479_a_at) / RFU FAM211A (11726209_a_at) / Fold change /veh FAM211A (11726209_a_at) / RFU RGS16 (11746705_a_at) / Fold change /veh RGS16 (11746705_a_at) / RFU VCAN (11755009_s_at) / Fold change /veh VCAN (11755009_s_at) / RFU RHOB (11743442_s_at) / Fold change /veh RHOB (11743442_s_at) / RFU RGS16 (11720943_a_at) / Fold change /veh RGS16 (11720943_a_at) / RFU RGS16 (11720944_at) / Fold change /veh RGS16 (11720944_at) / RFU, VPS4B / Fold change vs veh, VPS4B / RFU, CREB1 / Fold change vs veh, CREB1 / RFU, DNAJC13 / Fold change vs veh, DNAJC13 / RFU, GNAQ / Fold change vs veh, GNAQ / RFU, CDK5R1 / Fold change vs veh, CDK5R1 / RFU, ZRANB3 / Fold change vs veh, ZRANB3 / RFU, CUL4A / Fold change vs veh, CUL4A / RFU, CCNY / Fold change vs veh, CCNY / RFU, UFL1 / Fold change vs veh, UFL1 / RFU, COG3 / Fold change vs veh, COG3 / RFU, DIAPH2 / Fold change vs veh, DIAPH2 / RFU, SKA2 / Fold change vs veh, SKA2 / RFU, AFF3 / Fold change vs veh, AFF3 / RFU, LMF1 / Fold change vs veh, LMF1 / RFU, IPO11 / Fold change vs veh, IPO11 / RFU, DFFB / Fold change vs veh, DFFB / RFU, FOXP1 / Fold change vs veh, FOXP1 / RFU, CARD8 / Fold change vs veh, CARD8 / RFU, STRN3 / Fold change vs veh, STRN3 / RFU, ADK / Fold change vs veh, ADK / RFU, RASSF2 / Fold change vs veh, RASSF2 / RFU, WIPF1 / Fold change vs veh, WIPF1 / RFU, LARP1B / Fold change vs veh, LARP1B / RFU, RASA1 / Fold change vs veh, RASA1 / RFU, RB1 / Fold change vs veh, RB1 / RFU, PPFIA1 / Fold change vs veh, PPFIA1 / RFU, MAT2A / Fold change vs veh, MAT2A / RFU, CCT5 / Fold change vs veh, CCT5 / RFU, WDR92 / Fold change vs veh, WDR92 / RFU, CUX1 / Fold change vs veh, CUX1 / RFU, TTC7A / Fold change vs veh, TTC7A / RFU, TMEM135 / Fold change vs veh, TMEM135 / RFU, DEPTOR / Fold change vs veh, DEPTOR / RFU, CPM / Fold change vs veh, CPM / RFU, DNAJB6 / Fold change vs veh, DNAJB6 / RFU, CACNA2D3 / Fold change vs veh, CACNA2D3 / RFU, DTX4 / Fold change vs veh, DTX4 / RFU, TFCP2 / Fold change vs veh, TFCP2 / RFU, GMCL1 /// GMCL1P1 / Fold change vs veh, GMCL1 /// GMCL1P1 / RFU, AEBP2 / Fold change vs veh, AEBP2 / RFU, SNHG1 /// SNORD22 /// SNORD25 /// SNORD26 /// SNORD27 /// SNORD28 /// SNORD29 /// SNORD31 / Fold change vs veh, SNHG1 /// SNORD22 /// SNORD25 /// SNORD26 /// SNORD27 /// SNORD28 /// SNORD29 /// SNORD31 / Fold change (Aza/veh), C12orf56 (ProbeSet 11735607_a_at) / Fold change (ACY-1035/veh), C12orf56 (ProbeSet 11735607_a_at) / Fold change (Aza/veh), FGFR1OP (ProbeSet 11751329_s_at) / Fold change (ACY-1035/veh), FGFR1OP (ProbeSet 11751329_s_at) / Fold change (Aza/veh), VPS36 (ProbeSet 11739960_a_at) / Fold change (ACY-1035/veh), VPS36 (ProbeSet 11739960_a_at) / RFU SYPL1 (11715823_x_at) / Fold change /veh SYPL1 (11715823_x_at) / RFU IGFBP7 (11715501_s_at) / Fold change /veh IGFBP7 (11715501_s_at) / RFU REEP3 (11722064_at) / Fold change /veh REEP3 (11722064_at) / RFU IGLL1 (11728026_x_at) / Fold change /veh IGLL1 (11728026_x_at): dose or concentration left out as unconfirmed. The class given is cell-based, human.

As to `Nc1ncn([C@@H]2O[C@H](CO)[C@@H](O)[C@H]2O)c(=O)n1` [azacitidine], the “Fold change vs veh, DIAPH2” value amounted to 0.72.
